Data taken from patent US20240352046A1, “ECTONUCLEOTIDE PYROPHOSPHATASE-PHOSPHODIESTERASE-1 (ENPP1) INHIBITORS AND USES THEREOF” (1cBio, Inc., priority 2020, published 2024).

Target: ENPP-1 (Ectonucleotide Pyrophosphatase/Phosphodiesterase 1) (Homo sapiens (Human), UniProt P22413)
Assay: ENPP1 inhibition assay (AMP Glo, cGAMP substrate)
Assay type: biochemical
Conditions: cGAMP 20 μM substrate, ENPP1 1 nM
Procedure: IC50 values of compounds against ENPP-1 (Ectonucleotide Pyrophosphatase/Phosphodiesterase 1) were determined at Integral BioSciences (India) using AMP Glo (Promega, Cat #V5011). Assay was performed in a 30 μL final volume in a white 96-well Half Area plate (Costar,Cat #3693). Dose response curve for the compounds were prepared in duplicates with starting conc. at 5 μM and a three-fold titration was performed. The reaction buffer consisted of 50 mM Tris (pH 8.0), 0.5 mM CaCl2), 1 μM ZnCl2, 250 mM NaCl and 0.1 mg/ml BSA. To the compound dilution, 15 μL of ENPP1 enzyme (R&D Systems; Cat #6136-EN-010) was added to each well (final conc. 1 nM) and the mix was pre-incubated for 15 min at RT. An equal volume (15 μL) containing cGAMP (Sigma, Cat #SML-1229) (final conc. 20 μM) was added to initiate the enzyme reaction and the reaction was incubated for 30 min at RT. The reaction was then stopped by heating at 90° C. for 3 minutes. 10 μl of reaction was then transferred to 384 well white, medium binding plates (Grenier, Cat #781075) to which 10 μl of AMP-Glo Reagent 1 was added and mixed well and incubated for 1 hour at 25° C. Following 60 min incubation, 20 μL of detection mixture was added to the enzyme reaction bringing the final volume to 40 μL. The reaction was further incubated for 60 min at RT after which the plates were read using BioTek Plate reader.
Analysis was done using the standard curve by non-linear regression, variable slope inhibitor curve fits (Graph-Pad Prism) and IC50's of compounds were determined wherever possible.

ENPP-1 (Ectonucleotide Pyrophosphatase/Phosphodiesterase 1), sequence (P22413 whole entry): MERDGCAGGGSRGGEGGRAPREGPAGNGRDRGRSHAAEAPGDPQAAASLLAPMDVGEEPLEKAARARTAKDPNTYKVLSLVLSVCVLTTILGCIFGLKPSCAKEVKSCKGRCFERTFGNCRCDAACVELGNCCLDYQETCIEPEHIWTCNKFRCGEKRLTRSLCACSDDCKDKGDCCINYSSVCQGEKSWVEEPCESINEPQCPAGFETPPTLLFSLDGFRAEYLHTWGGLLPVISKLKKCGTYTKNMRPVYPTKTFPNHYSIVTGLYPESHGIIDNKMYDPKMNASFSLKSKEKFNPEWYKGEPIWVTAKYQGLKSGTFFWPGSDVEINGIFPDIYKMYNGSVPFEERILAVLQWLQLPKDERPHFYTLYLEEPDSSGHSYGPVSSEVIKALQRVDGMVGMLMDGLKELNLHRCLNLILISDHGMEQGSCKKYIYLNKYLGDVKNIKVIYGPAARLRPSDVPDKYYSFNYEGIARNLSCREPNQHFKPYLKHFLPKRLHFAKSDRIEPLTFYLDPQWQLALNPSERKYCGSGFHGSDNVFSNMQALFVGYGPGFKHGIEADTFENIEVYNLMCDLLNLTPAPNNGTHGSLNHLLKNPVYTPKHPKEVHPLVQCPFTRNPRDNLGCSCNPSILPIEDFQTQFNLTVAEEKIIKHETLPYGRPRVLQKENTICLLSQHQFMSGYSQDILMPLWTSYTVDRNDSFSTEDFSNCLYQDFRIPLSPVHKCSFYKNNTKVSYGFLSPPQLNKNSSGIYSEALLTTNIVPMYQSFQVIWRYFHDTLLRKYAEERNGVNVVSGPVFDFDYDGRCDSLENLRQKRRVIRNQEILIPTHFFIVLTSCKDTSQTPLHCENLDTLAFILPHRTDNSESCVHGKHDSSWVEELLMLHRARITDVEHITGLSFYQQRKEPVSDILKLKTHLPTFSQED

Structure (SMILES)	IC50 [µM]
Cc1cc(C)n2ncnc(N3CC4(CC(N(C)S(N)(=O)=O)C4)C3)c12 [Compound 1.77, N-(2-(5,7-dimethylpyrrolo[1,2-f][1,2,4]triazin-4-yl)-2-azaspiro[3.3]heptan-6-yl)-N-methylsulfamide]	0.295
Cc1cc(Br)n2ncnc(N3CC4(CC(N(C)S(N)(=O)=O)C4)C3)c12 [Compound 1.79, N-(2-(7-bromo-5-methylpyrrolo[1,2-f][1,2,4]triazin-4-yl)-2-azaspiro[3.3]heptan-6-yl)-N-methylsulfamamide]	0.053
Cc1cc(Cl)n2ncnc(N3CC(CCN(C)S(N)(=O)=O)C3)c12 [Compound 1.84, N-(2-(1-(7-chloro-5-methylpyrrolo[1,2-f][1,2,4]triazin-4-yl)azetidin-3-yl)ethyl)-N-methylsulfamide]	> 2.25
Cc1cc(Cl)n2nc(C3CC3)nc(N3CC4(CC(N(C)S(N)(=O)=O)C4)C3)c12 [Compound 1.85]	> 2.39
COc1ccc2c(N3CC4(CC(N(C)S(N)(=O)=O)C4)C3)cnnc2c1 [Compound 1.87, N-(2-(7-methoxycinnolin-4-yl)-2-azaspiro[3.3]heptan-6-yl)-N-methylsulfamide]	0.024
Cc1cc(Cl)n2ncnc(N3CC(CCN(C4CC4)S(N)(=O)=O)C3)c12 [Compound 1.92, N-(2-(1-(7-chloro-5-methylpyrrolo[2,1-f][1,2,4]triazin-4-yl)azetidin-3-yl)ethyl)-N-cyclopropylsulfamamide]	1.51
Cc1cc(Cl)n2ncnc(N3CC4(CC(N(CCC(F)(F)F)S(N)(=O)=O)C4)C3)c12 [Compound 1.93, N-(2-(7-chloro-5-methylpyrrolo[2,1-f][1,2,4]triazin-4-yl)-2-azaspiro[3.3]heptan-6-yl)-N-(3,3,3-trifluoropropyl)sulfamamide]	0.019
CCCN(CCC1CN(c2ncnn3c(Cl)cc(C)c23)C1)S(N)(=O)=O [Compound 1.95, N-(2-(1-(7-chloro-5-methylpyrrolo[2,1-f][1,2,4]triazin-4-yl)azetidin-3-yl)ethyl)-N-propylsulfamamide]	1.88
CCN(C1CC2(C1)CN(c1ncnn3c(Cl)cc(C)c13)C2)S(N)(=O)=O [Compound 1.98, N-(2-(7-chloro-5-methylpyrrolo[2,1-f][1,2,4]triazin-4-yl)-2-azaspiro[3.3]heptan-6-yl)-N-ethylsulfamamide]	0.055
Cc1cc(Cl)n2ncnc(N3CC4(CC(N(CC(F)F)S(N)(=O)=O)C4)C3)c12 [Compound 1.99, N-(2-(7-chloro-5-methylpyrrolo[2,1-f][1,2,4]triazin-4-yl)-2-azaspiro[3.3]heptan-6-yl)-N-(2,2-difluoroethyl)sulfamamide]	0.01
Cc1cc(Cl)n2nc(C(C)C)nc(N3CC4(CC(N(C)S(N)(=O)=O)C4)C3)c12 [Compound 1.101, N-(2-(7-chloro-2-isopropyl-5-methylpyrrolo[1,2-f][1,2,4]triazin-4-yl)-2-azaspiro[3.3]heptan-6-yl)-N-methylsulfamide]	> 3
CN(C1CC2(C1)CN(c1ncnc3c1cnn3C)C2)S(N)(=O)=O [Compound 1.105, N-methyl-N-(2(1-methyl-1H-pyrazolo[3,4-d]pyrimidin-4-yl)-2-azaspiro[3.3]heptan-6-yl)sulfamamide]	0.091
Cc1cc(Cl)n2nc(-c3ccc(F)cc3)nc(N3CC4(CC(N(C)S(N)(=O)=O)C4)C3)c12 [Compound 1.106, N-(2-(7-chloro-2-(4-fluorophenyl)-5-methylpyrrolo[2,1-f][1,2,4]triazin-4-yl)-2-azaspiro[3.3]heptan-6-yl)-N-methylsulfamamide]	> 3
CN(C1CC2(C1)CN(c1nc(N)nc3[nH]cnc13)C2)S(N)(=O)=O [Compound 1.108, N-(2-(2-amino-9H-purin-6-yl)-2-azaspiro[3.3]heptan-6-yl)-N-methylsulfamamide]	> 3
Cc1cc(Cl)n2ncnc(N3CC4(CC(N(C5CCCC5)S(N)(=O)=O)C4)C3)c12 [Compound 1.110, N-(2-(7-chloro-5-methylpyrrolo[2,1-f][1,2,4]triazin-4-yl)-2-azaspiro[3.3]heptan-6-yl)-N-cyclopentylsulfamamide]	0.395
Cc1cc(Cl)n2ncnc(N3CC4(CC(N(C5CCC5)S(N)(=O)=O)C4)C3)c12 [Compound 1.111, N-(2-(7-chloro-5-methylpyrrolo[2,1-f][1,2,4]triazin-4-yl)-2-azaspiro[3.3]heptan-6-yl)-N-cyclobutylsulfamamide]	0.398

Now from value to compound:

IC50 [µM]	Structure (SMILES)
> 3	Cc1c(Br)cn2ncnc(N3CC(CCNS(N)(=O)=O)C3)c12 [Compound 1.72, 4-(3-(2-sulfamoylaminoethyl)azetidine-1-yl)-6-bromo-5-methylpyrrolo[1,2-f][1,2,4]triazine]
0.247	Cc1ccn2ncnc(N3CC4(CC(N(C)S(N)(=O)=O)C4)C3)c12 [Compound 1.73]
0.391	Cc1c(Cl)cn2ncnc(N3CC4(CC(N(C)S(N)(=O)=O)C4)C3)c12 [Compound 1.75, N-[2-(6-chloro-5-methylpyrrolo[2,1-f][1,2,4]triazin-4-yl)-2-azaspiro[3.3]hept-6-yl]-N-methylsulfuric diamide]
0.964	Cc1c(C#N)cn2ncnc(N3CC4(CC(N(C)S(N)(=O)=O)C4)C3)c12 [Compound 1.78, N-(2-(6-cyano-5-methylpyrrolo[1,2-f][1,2,4]triazin-4-yl)-2-azaspiro[3.3]heptan-6-yl)-N-methylsulfamamide]
0.616	Cc1cc(F)n2ncnc(N3CC4(CC(N(C)S(N)(=O)=O)C4)C3)c12 [Compound 1.80, N-(2-(7-fluoro-5-methylpyrrolo[1,2-f][1,2,4]triazin-4-yl)-2-azaspiro[3.3]heptan-6-yl)-N-methylsulfamamide]
0.245	Cc1cc(Cl)n2ncnc(N3CC4(CC(N(C5CC5)S(N)(=O)=O)C4)C3)c12 [Compound 1.81, N-(2-(7-chloro-5-methylpyrrolo[2,1-f][1,2,4]triazin-4-yl)-2-azaspiro[3.3]heptan-6-yl)-N-cyclopropylsulfamamide]
1.89	Cc1cc(Cl)n2ncnc(N3CC4(CC(N(C(C)C)S(N)(=O)=O)C4)C3)c12 [Compound 1.82, N-(2-(7-chloro-5-methylpyrrolo[2,1-f][1,2,4]triazin-4-yl)-2-azaspiro[3.3]heptan-6-yl)-N-isopropylsulfamamide]
> 3	Cc1cc(Cl)n2ncnc(N3CC(CCN(C(C)C)S(N)(=O)=O)C3)c12 [Compound 1.83, N-(2-(1-(7-chloro-5-methylpyrrolo[2,1-f][1,2,4]triazin-4-yl)azetidin-3-yl)ethyl)-N-isopropylsulfamamide]
0.106	Cc1cc(Cl)n2ncnc(N3CC(CN(C)S(N)(=O)=O)C3)c12 [Compound 1.86]
> 3	Cc1cc(Cl)n2nc(C(F)F)nc(N3CC4(CC(N(C)S(N)(=O)=O)C4)C3)c12 [Compound 1.90]
> 3	Cc1cc(C#N)n2ncnc(N3CC4(CC(N(C)S(N)(=O)=O)C4)C3)c12 [Compound 1.91, N-(2-(6-cyano-5-methylpyrrolo[1,2-f][1,2,4]triazin-4-yl)-2-azaspiro[3.3]heptan-6-yl)-N-methylsulfamamide]
> 3	Cc1cc(Cl)n2ncnc(N3CC(CCN(C4CCC4)S(N)(=O)=O)C3)c12 [Compound 1.94, N-(2-(1-(7-chloro-5-methylpyrrolo[2,1-f][1,2,4]triazin-4-yl)azetidin-3-yl)ethyl)-N-cyclobutylsulfamamide]
> 3	CN(C1CC2(C1)CN(c1nc(Cl)nc3c1cnn3C)C2)S(N)(=O)=O [Compound 1.96, N-(2-(6-chloro-1-methyl-1H-pyrazolo[3,4-d]pyrimidin-4-yl)-2-azaspiro[3.3]heptan-6-yl)-N-methylsulfamamide]
0.036	CCCN(C1CC2(C1)CN(c1ncnn3c(Cl)cc(C)c13)C2)S(N)(=O)=O [Compound 1.97, N-(2-(7-chloro-5-methylpyrrolo[2,1-f][1,2,4]triazin-4-yl)-2-azaspiro[3.3]heptan-6-yl)-N-propylsulfamamide]
> 3	CN(C1CC2(C1)CN(c1ncnc3scc(-c4ccccc4)c13)C2)S(N)(=O)=O [Compound 1.100, N-methyl-N-(2-(5-phenylthieno[2,3-d]pyrimidin-4-yl)-2-azaspiro[3.3]heptan-6-yl)sulfamamide]
0.59	CCCN(C1CC2(C1)CN(c1nc(C)nn3c(Cl)cc(C)c13)C2)S(N)(=O)=O [Compound 1.103, N-(2-(7-chloro-2,5-dimethylpyrrolo[1,2-f][1,2,4]triazin-4-yl)-2-azaspiro[3.3]heptan-6-yl)-N-propylsulfatamide]
0.189	Cc1cc(Cl)n2ncnc(N3CC4(CC(N(Cc5ccc(C(F)(F)F)cc5)S(N)(=O)=O)C4)C3)c12 [Compound 1.109, N-(2-(7-chloro-5-methylpyrrolo[2,1-f][1,2,4]triazin-4-yl)-2-azaspiro[3.3]heptan-6-yl)-N-(4-(trifluoromethyl)benzyl)sulfamamide]
0.141	Cc1cc(Cl)n2ncnc(N3CC4(CC(N(Cc5ccccc5)S(N)(=O)=O)C4)C3)c12 [Compound 1.112, N-benzyl-N-(2-(7-chloro-5-methylpyrrolo[2,1-f][1,2,4]triazin-4-yl)-2-azaspiro[3.3]heptan-6-yl)sulfamamide]
